According to article PMC11222350, “Preclinical evaluation of [^18F]FP-CIT, the radiotracer targeting dopamine transporter for diagnosing Parkinson’s disease: pharmacokinetic and efficacy analysis” (EJNMMI Research, 2024):

Key:
dopamine transporter [1] = biological target: T1, dopamine transporter (Rattus norvegicus, UniProt P23977); experiment: Correlation between [^18F]FP-CIT PET uptake and tyrosine hydroxylase IHC; type: in vivo, Sprague–Dawley rats; details: Pearson
T1 construct: animal PET/CT imaging of [^18F]FP-CIT was performed in the same week following the behavioral tests on the group IV 6-OHDA PD model; from tissue; host or cells: striatum of living Sprague-Dawley rats (in vivo PET/CT)
T1 sequence (P23977 whole entry): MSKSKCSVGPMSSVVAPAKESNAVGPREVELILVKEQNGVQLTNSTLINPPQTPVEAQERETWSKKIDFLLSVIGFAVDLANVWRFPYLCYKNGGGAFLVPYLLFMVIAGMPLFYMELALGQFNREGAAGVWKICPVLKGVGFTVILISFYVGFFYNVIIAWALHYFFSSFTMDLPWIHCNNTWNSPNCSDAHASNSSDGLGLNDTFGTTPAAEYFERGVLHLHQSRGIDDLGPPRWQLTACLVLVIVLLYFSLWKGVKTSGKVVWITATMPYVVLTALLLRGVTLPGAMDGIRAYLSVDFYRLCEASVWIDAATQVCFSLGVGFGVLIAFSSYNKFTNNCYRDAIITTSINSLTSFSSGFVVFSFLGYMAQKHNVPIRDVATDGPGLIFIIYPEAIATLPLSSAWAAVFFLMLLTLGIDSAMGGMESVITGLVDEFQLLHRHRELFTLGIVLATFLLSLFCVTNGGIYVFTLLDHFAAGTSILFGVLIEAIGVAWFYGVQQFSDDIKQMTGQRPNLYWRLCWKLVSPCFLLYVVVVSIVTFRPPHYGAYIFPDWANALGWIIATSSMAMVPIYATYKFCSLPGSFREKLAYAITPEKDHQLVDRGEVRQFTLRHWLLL
Description: After MR and PET/CT studies, group IV rats were anesthetized with 3.5% isoflurane and fixed by intracardial perfusion with 0.9% saline, followed by 4% paraformaldehyde, replacing the blood in the brain. The brains were extracted and post-fixed in 4% paraformaldehyde overnight at 4 °C. Subsequently, the samples were transferred to 30% sucrose at 4 °C until they sank to the bottom. Cryoprotected brains were embedded in optimal cutting temperature compound (Tissue-Tek; Sakura, Torrance, CA, USA) and sectioned in the coronal plane using a microtome (CM1950; Leica, Wetzlar, Germany) at a thickness of 30 μm. Free-floating brain sections were rinsed with PBS, treated with 3% hydrogen peroxide for 30 min, and then washed with PBS again. Sections were permeabilized with 0.3% Trioton-X-100 for 30 min and washed with PBS. […]
IHC slide imaging was performed using a slide scanner (MoticEasyScan Pro 6; Motic, Kowloon, Hong Kong). The intensity of TH antibody binding was quantified by delineating regions of interest (ROI) for positive lesion and intact sites on the IHC images using ImageJ software. An average of four slides for each brain sample was analyzed. […]
The correlation between [^18F]FP-CIT uptake and TH intensity was assessed, considering absolute values for each lesion and intact site in the striatum. Additionally, lesion/intact ratio values for each study were calculated and analyzed. […]

dopamine transporter [2] = biological target: T1, dopamine transporter; experiment: Animal PET/CT imaging of [^18F]FP-CIT in the 6-OHDA-induced rat model; type: in vivo, Sprague–Dawley rats; details: for SUV of lesion site uptake: 37 MBq i.v.
Description: We induced the PD model in rats using 6-OHDA according to a previous study. Briefly, female Sprague–Dawley rats (group IV) were intraperitoneally pretreated with desipramine […] (12.5 mg/kg; 12.5 mg/mL). The rats were anesthetized with 3% isoflurane in oxygen, had their heads shaved, and were placed in a stereotactic frame. A lesion in the right striatum was induced by 6-OHDA injection (4 μg/μL, 2 μL/site in 0.2% ascorbic acid) into four coordinate sites (anterior–posterior (AP) + 1.3, + 0.4, − 0.4, and − 1.3 mm; medial–lateral (ML) − 2.6, − 3.0, − 4.2, and − 4.5 mm; and dorsal–ventral (DV) − 5.0 mm) using a 26G Hamilton syringe at a rate of 1 μL/min (n = 3). The syringe was withdrawn slowly 5 min after the injection, and the wound was sutured. The surgical procedure in the sham group was also performed in the same manner using […] in normal saline instead of 6-OHDA (n = 3). All of the rats were randomly assigned to PD and sham model groups.
To evaluate the uptake targeting efficacy in the striatum, animal PET/CT imaging of [^18F]FP-CIT was performed in the same week following the behavioral tests on the group IV 6-OHDA PD model (PD model and sham model, n = 3 per group). PET/CT images were acquired using nanoScan® PET/CT (Mediso Medical Imaging Systems, Budapest, Hungary). PET image acquisition was performed as previously described. Rats were anesthetized with 2% isoflurane in oxygen, and 37 MBq of [^18F]FP-CIT in 1 mL of saline was intravenously injected via the tail vein using a syringe pump (Pump Elite 11, Harvard Apparatus, USA) over 1 min. Dynamic PET scanning was performed for 60 min with 24 frames ([…], 3 × 60, 4 × 300, and 3 × 600 s). Image scans were acquired in the energy window of 400–600 keV. All images were reconstructed using a three-dimensional ordered subset expectation maximization (3D-OSEM) algorithm with four iterations and six subsets. For attenuation correction and anatomical reference, CT imaging was performed immediately after PET using a 50 kVp of X-ray voltage with 0.16 mAs.
To define the anatomical volumes of interest (VOIs), MR scans were obtained on a 31 cm horizontal-bore Agilent 9.4T scanner (Agilent Technologies, Santa Clara, CA, USA) using a 4-channel array mouse head surface coil following PET/CT imaging (Rapid Biomedical GmbH, Rimpar, Germany) (PD model and sham model, n = 3 each). […] The respiratory rates of the rats were monitored using an MR-compatible physiological monitoring and gating system during image acquisition (SA Instruments Inc., USA).
Each PET image was co-registered with the raw MR image to compare the regional [^18F]FP-CIT uptake in the striatum. […] The obtained uptake value, represented as the standardized uptake value (SUV), was determined for each VOI. […]

dopamine transporter [3] = details: PET scanning; cited from earlier work

Question: Which results are given for `COC(=O)[C@H]1[C@@H](c2ccc(I)cc2)C[C@@H]2CC[C@H]1N2CCCF` [[^18F]FP-CIT, N-(3-fluoropropyl)-2β-carboxymethoxy-3β-(4-iodophenyl) nortropane]?
Answer: correlation coefficient (R) between animal PET/CT uptake and TH intensity by IHC, absolute values (dopamine transporter [1]; each lesion and intact site in the striatum, n = 12): 0.803; correlation coefficient (R) between animal PET/CT uptake and TH intensity by IHC, lesion/intact ratio values (dopamine transporter [1]; n = 6): 0.973; time at which transient equilibrium tendency appeared in TACs (dopamine transporter [2]; intact striatum, post-injection): approximately 5 min; reduction of lesion site SUV, PD group vs sham group (dopamine transporter [2]; striatum lesion site): 55.4%; SUV of lesion site uptake (dopamine transporter [2]; striatum lesion site, PD group (6-OHDA)): 1.85 ± 0.13; SUV of lesion site uptake (dopamine transporter [2]; striatum lesion site, sham group): 4.15 ± 0.86; time of transient equilibrium in time activity curves (specific binding to the striatum) (dopamine transporter [3]): 60 to 100 min
